Measurements: patent US20200261398A1, “METHOD FOR FIRST-LINE TREATMENT OF ROSACEA” (Sol-Gel Technologies Ltd., priority 2019, published 2020)

Columns and labels:
[1] = system: patients afflicted with papulopustular rosacea; assay: Inflammatory lesion (papules, pustules) count, 12-week vehicle-controlled study of E-BPO 5% cream; type: in vivo, human
Description: (§1) A multi-center, double-blind, randomized, vehicle-controlled, dose-range study of encapsulated 5% benzoyl peroxide (E-BPO) Cream and vehicle cream was performed to assess the efficacy and safety of E-BPO compared to vehicle. Study duration was 12 weeks and included approximately 350 male and female patients afflicted with papulopustular rosacea. Patients were at least 18 years of age, and met the inclusion/exclusion criteria described herein.
Patients were randomized in a 2:1 ratio to the study product or vehicle treatment group, respectively. Patients applied the study product once daily for 12 weeks on the face (chin, left cheek, right cheek, nose, left forehead and right forehead) in a thin layer to provide even distribution, and avoid the eyes, lips, inside the nose, mouth and all mucous membranes.
(§2) Patients were admitted into the study after meeting all inclusion/exclusion criteria, including a clinical diagnosis of rosacea and after written informed consent has been obtained. Subjects with severe rosacea who are appropriate for systemic treatment need to be counseled regarding their treatment options by the Principal Investigator. At each visit, a 5-point IGA scale of rosacea; rosacea erythema, and telangiectasia; and inflammatory (papules, pustules) lesion counts were performed and recorded.
The first application of the test product was applied at the investigational site at the end of the Baseline visit (Day 0) under the supervision and instruction of the designated investigational site staff. The investigator performed the Investigator Global Assessment (IGA) and inflammatory lesion (papules and pustules) counts at Screening, Baseline, and Weeks 4, 8, and 12 (end of study) and erythema and telangiectasia assessments at Baseline, and Weeks 4, 8, and 12 (end of study). The evaluator also assessed local application site irritation (dryness, scaling, pruritus, stinging and burning) at Baseline and Weeks 2, 4, 8 and 12 (end of study). At selected investigational site(s), standardized photography of facial rosacea also was performed at Baseline and Week 8 and 12 (end of study).
The absolute change (primary measure of success) and percent change (secondary measure of success) from baseline of inflammatory lesions was derived for each patient at Weeks 2, 4, 8 and 12. The IGA was recorded for each patient at Baseline, Weeks 2, 4, 8 and 12. Weeks 2, 4, 8 and 12 with a patient were considered a success for those visits if the IGA was at least 2 grades less than baseline and are Clear or Almost Clear. Data from two sets of experiments—Drug 01+Vehicle 01 and Drug 02+Vehicle 02—are included herewith for each measurement
The proportions of subjects with a secondary measure of success (defined as change in the mean inflammatory lesion count from Baseline to Weeks 2, 4, 8 and 12) are shown in Tables 2A, 2B, 3A and 3B, and FIGS. 2 and 3.

[2] = system: patients afflicted with papulopustular rosacea; assay: Investigator Global Assessment (IGA) success, 12-week vehicle-controlled study of E-BPO 5% cream; type: in vivo, human
Description: as §1
Patients were randomized in a 2:1 ratio to the study product or vehicle treatment group, respectively. […]
as §2, with “Subjects with severe rosacea who are appropriate for systemic treatment need to be counseled regarding their treatment options by the Principal Investigator.” left out
(§3) The first application of the test product was applied at the investigational site at the end of the Baseline visit (Day 0) under the supervision and instruction of the designated investigational site staff. […] The evaluator also assessed local application site irritation (dryness, scaling, pruritus, stinging and burning) at Baseline and Weeks 2, 4, 8 and 12 (end of study). […]

[3] = system: patients afflicted with papulopustular rosacea; assay: Cutaneous Safety Assessment (dryness, scaling) and Local Tolerability Assessment (itching, burning/stinging), 12-week study of E-BPO 5% cream; type: in vivo, human; details: studies described herein
Description: Safety was assessed at all visits, and will include monitoring of local adverse experiences, Investigator Cutaneous Safety Assessment rating of dryness and scaling and Local Tolerability Assessment rating of itching and burning/stinging on a scale ranging from 0 (None) to 3 (Severe); patients complete a Patient Reported Outcomes (PRO) questionnaire at Visit 2, 3, 4, 5 and 6 and Rosacea Quality of Life Questionnaire (RosaQoL) at Baseline and Visit 6 or at early termination. Standardized photography of facial rosacea at Visit 2, 3, 4, 5 and 6 was performed at select site(s).
In addition to IGA, at each visit, the following safety measures were recorded: monitoring for any AE (adverse effects) including local and systemic; investigator Cutaneous Safety Assessment rating of erythema, dryness and scaling and Local Tolerability Assessments rating of itching and burning/stinging on a scale ranging from 0 (None) to 3 (Severe).
as §3

rosacea = details: BPO as the sole active agent (Gul 2008); cited from earlier work
[4] = after at least 12 weeks of treatment

For `O=C(OOC(=O)c1ccccc1)c1ccccc1` [BPO, Benzoyl peroxide], which “decrease in inflammatory lesions” value [1, 4] is on record?
Its value is “over 69%”.

What about the “decrease in inflammatory lesions relative to effect of vehicle cream” value [1, 4] of the same compound?
Its value is “more than 1.5 ×”.

What about the “decrease in inflammatory lesions, on average” value ([1]; after only 2 weeks of treatment) of the same compound?
The value was “about 40%”.

What about the “decrease in inflammatory lesions” value ([1]; in 4 weeks) of the same compound?
The value was “over 58%”.

What about the “decrease in inflammatory lesions” value ([1]; in 8 weeks) of the same compound?
The value was “about 70%”.

What about the “success in IGA” value ([2]; after 2 weeks of BPO-treatment) of the same compound?
The value was “about 10%”.

What about the “success in IGA” value ([2]; after only 4 weeks of treatment) of the same compound?
The value was “about 25%”.

What about the “percentage of patients reporting no subcutaneous reactions compared with vehicle” value [3] of the same compound?
Its value is “comparable, and for some conditions, surprisingly, higher”.

And the response of lesions (rosacea)?
Its response of lesions is “unresponsive”.
